Measurements reported in patent publication US7557133B2, “Caspase inhibitors containing isoxazoline ring” (LG Life Sciences Ltd., priority 2003, dated 2009).
pIC50: −log10 of the molar value.

Columns and labels:
caspase-8 = molecular target: T1, caspase-8 (Homo sapiens, UniProt Q14790); experiment: Caspase-8 inhibitory effect (fluorescent substrate AcDEVD-AFC); format: biochemical; conditions: 25° C., 50 μM AcDEVD-AFC, 2.1 nM caspase-8; for kinact/KI: pH 7.5, read-out: Caspase-8 Kobs/[I] (converted)
T1 construct: p10 and p20 subunits (Thornberry, N. A. et al, Nature, 1992, 356, 768) were expressed in E. coli; made in house; host or cells: E. coli
Description: Caspase-1 and caspase-8 known as cysteine proteases in the form of α2β2 were expressed, purified, and activated by modifying a method known in Thornberry, N. A. et al, Nature, 1992, 356, 768. Thornberry, N. A. Methods in Enzymology, 1994, 244, 615. Walker, N. P. C. et al. Cell, 1994, 78, 343, and caspase-9 was also purified by a similar method, and the inhibitory activity against them was tested. Briefly describing, p10 and p20 subunits (Thornberry, N. A. et al, Nature, 1992, 356, 768) were expressed in E. coli and purified by nickel column and anionic exchange chromatography to give caspase-1, caspase-8 and caspase-9. The fluorescent substrate AcYVAD-AFC for thus obtained caspase-1, AcDEVD-AFC for caspase-8, and AcLEHD-AFC for caspase-9 were used for determining specific activity of the synthesized inhibitors. The enzyme reaction was carried out at 25° C. with various concentrations of the inhibitors in a buffer solution containing 50 mM HEPES(pH 7.50), 10% (w/v) sucrose, 0.1% (w/v) CHAPS, 100 mM NaCl, 1 mM EDTA, and 10 mM DTT in the presence of 50 μM AcYVAD-AFC for 10 nM caspase-1, 50 μM AcDEVD-AFC for 2.1 nM caspase-8, and 150 μM AcLEHD-AFC for 200 nM caspase-9. The inhibitory constants Ki and Kobs of the inhibitors were determined by measuring the reaction velocity with the time lapse using a fluorescent spectrometer and by obtaining the initial rate constant. Ki was calculated from the Lineweaver Burk Plot, and Kobs from the following Equation 1. Kobs=−ln(1−At/Aoo)/t Equation 1
At means cleavate rate (%) at time t, and
Aoo means the maximum cleavage rate (%).
Spectra MAX GeminiXS Fluorescent Spectrometer of Molecular Device Co. was used at the excitation wavelength of 405 nm and the emission wavelength of […].

[1] = system: Jurkat cell (ATCC TIB-152); experiment: Jurkat cell apoptosis by Fas antibody, WST-1 method; format: cell-based; conditions: apoptosis using Fas antibody, WST-1; for pIC50: Homo sapiens, Jurkat
Description: The […] inhibitory activity of the inhibitors was determined by subjecting Jurkat cell (ATCC TIB-152) to apoptosis using Fas antibody (Upstate Biotech 05-201) and by detecting the color change according to the WST-1 method known in Francoeur A. M. and Assalian A. (1996) Biochemica 3, 19-25 to observe the amount of alive Jurkat cells when the cells were treated by the inhibitor. Spectra MAX 340 Spectrometer of Molecular Device Co. was used at the absorbance wavelength of 440 nm.

T1 sequence (Q14790 217-374 limits assumed, species assumed): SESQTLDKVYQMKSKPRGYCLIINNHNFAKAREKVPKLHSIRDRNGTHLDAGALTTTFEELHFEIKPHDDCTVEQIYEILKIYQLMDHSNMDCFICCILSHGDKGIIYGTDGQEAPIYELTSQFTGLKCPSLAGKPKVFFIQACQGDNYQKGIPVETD
T1 sequence (Q14790 385-479 limits assumed, species assumed): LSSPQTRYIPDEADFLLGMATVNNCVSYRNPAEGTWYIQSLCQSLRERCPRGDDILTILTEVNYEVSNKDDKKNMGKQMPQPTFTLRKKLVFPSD

CCC1(C(=O)NC(CC(=O)O)C(=O)CF)CC(c2ccccc2C(C)C)=NO1 (centres unmarked) [Iaa1, 3-({[5-Ethyl-3-(2-isopropylphenyl)-4,5-dihydro-5-isoxazolyl]carbonyl}amino)-5-fluoro-4-oxopentanoic acid]
kinact/KI (caspase-8): 3000 M⁻¹ s⁻¹
pIC50 [1]: 6.48

CCC1(C(=O)NC(CC(=O)O)C(=O)CF)CC(c2cccc(C(C)(C)C)c2)=NO1 (centres unmarked) [Iaa2, 3-[({3-[3-(tert-Butyl)phenyl]-5-ethyl-4,5-dihydro-5-isoxazolyl}carbonyl)amino]-5-fluoro-4-oxopentanoic acid]
kinact/KI (caspase-8): 5330 M⁻¹ s⁻¹
pIC50 [1]: 6.25

CCC1(C(=O)NC(CC(=O)O)C(=O)CF)CC(c2ccc(C(C)(C)C)cc2)=NO1 (centres unmarked) [Iaa3, 3-[({3-[4-(tert-Butyl)phenyl]-5-ethyl-4,5-dihydro-5-isoxazolyl}carbonyl)amino]-5-fluoro-4-oxopentanoic acid]
kinact/KI (caspase-8): 2330 M⁻¹ s⁻¹
pIC50 [1]: 5.58

CC(C)c1ccccc1C1=NO[C@@](C(=O)NC(CC(=O)O)C(=O)CF)(C(C)C)C1 (stereo partly drawn) [Iaa4, 5-Fluoro-3-({[(5R)-5-isopropyl-3-(2-isopropylphenyl)-4,5-dihydro-5-isoxazolyl]carbonyl}amino)-4-oxopentanoic Acid]
kinact/KI (caspase-8): 8330 M⁻¹ s⁻¹
pIC50 [1]: 6.17

CC(C)[C@@]1(C(=O)NC(CC(=O)O)C(=O)CF)CC(c2cccc(C(C)(C)C)c2)=NO1 (stereo partly drawn) [Iaa5, 3-[({(5R)-3-[3-(tert-butyl)phenyl]-5-isopropyl-4,5-dihydro-5-isoxazolyl}carbonyl)amino]-5-fluoro-4-oxopentanoic acid]
kinact/KI (caspase-8): 5000 M⁻¹ s⁻¹
pIC50 [1]: 6.52

CC(C)C1(C(=O)NC(CC(=O)O)C(=O)CF)CC(c2cccc(-c3ccccc3)c2)=NO1 (centres unmarked) [Iaa6, 3-{[(3-[1,1′-biphenyl]-3-yl-5-isopropyl-4,5-dihydro-5-isoxazolyl)carbonyl]amino}-5-fluoro-4-oxopentanoic acid]
kinact/KI (caspase-8): 3330 M⁻¹ s⁻¹
pIC50 [1]: 5.61

CCC1(C(=O)NC(CC(=O)O)C(=O)CF)CC(c2ccccn2)=NO1 (centres unmarked) [Iaa7, 3-({[5-Ethyl-3-(2-pyridinyl)-4,5-dihydro-5-isoxazolyl]carbonyl}amino)-5-fluoro-4-oxopentanoic Acid]
kinact/KI (caspase-8): 733 M⁻¹ s⁻¹
pIC50 [1]: 5.64

CCC1(C(=O)NC(CC(=O)O)C(=O)CF)CC(c2cc(C(C)(C)C)ccn2)=NO1 (centres unmarked) [Iaa8, 3-[({3-[4-(tert-Butyl)-2-pyridinyl]-5-ethyl-4,5-dihydro-5-isoxazolyl}carbonyl)amino]-5-fluoro-4-oxopentanoic Acid]
kinact/KI (caspase-8): 7500 M⁻¹ s⁻¹
pIC50 [1]: 6.15

CC(C)[C@@]1(C(=O)NC(CC(=O)O)C(=O)CF)CC(c2cc(C(C)(C)C)ccn2)=NO1 (stereo partly drawn) [Iaa9, 3-[({(5R)-3-[4-(tert-butyl)-2-pyridinyl]-5-isopropyl-4,5-dihydro-5-isoxazolyl}carbonyl)amino]-5-fluoro-4-oxopentanoic acid]
kinact/KI (caspase-8): 3830 M⁻¹ s⁻¹
pIC50 [1]: 5.91

CCC1(C(=O)NC(CC(=O)O)C(=O)CF)CC(c2cc(CC(C)C)ccn2)=NO1 (centres unmarked) [Iaa10, 3-({[5-Ethyl-3-(4-isobutyl-2-pyridinyl)-4,5-dihydro-5-isoxazolyl]carbonyl}amino)-5-fluoro-4-oxopentanoic acid]
kinact/KI (caspase-8): 2500 M⁻¹ s⁻¹
pIC50 [1]: 5.99

CCC1(C(=O)NC(CC(=O)O)C(=O)CF)CC(c2cc(C(C)=O)ccn2)=NO1 (centres unmarked) [Iaa11, 3-({[3-(4-Acetyl-2-pyridinyl)-5-ethyl-4,5-dihydro-5-isoxazolyl]carbonyl}amino)-5-fluoro-4-oxopentanoic acid]
kinact/KI (caspase-8): 1070 M⁻¹ s⁻¹
pIC50 [1]: 4.51

CCC1(C(=O)NC(CC(=O)O)C(=O)CF)CC(c2cc(C3CC3)ccn2)=NO1 (centres unmarked) [Iaa12, 3-({[3-(4-Cyclopropyl-2-pyridinyl)-5-ethyl-4,5-dihydro-5-isoxazolyl]carbonyl}amino)-5-fluoro-4-oxopentanoic acid]
kinact/KI (caspase-8): 3170 M⁻¹ s⁻¹
pIC50 [1]: 6.15

CCC1(C(=O)NC(CC(=O)O)C(=O)CF)CC(c2cc(C3CCCC3)ccn2)=NO1 (centres unmarked) [Iaa13, 3-({[3-(4-Cyclopentyl-2-pyridinyl)-5-ethyl-4,5-dihydro-5-isoxazolyl]carbonyl}amino)-5-fluoro-4-oxopentanoic Acid]
kinact/KI (caspase-8): 5170 M⁻¹ s⁻¹
pIC50 [1]: 6.46

CC(C)[C@@]1(C(=O)NC(CC(=O)O)C(=O)CF)CC(c2cc(C3CCCC3)ccn2)=NO1 (stereo partly drawn) [Iaa14, 3-({[(5R)-3-(4-cyclopentyl-2-pyridinyl)-5-isopropyl-4,5-dihydro-5-isoxazolyl]carbonyl}amino)-5-fluoro-4-oxopentanoic Acid]
kinact/KI (caspase-8): 6830 M⁻¹ s⁻¹
pIC50 [1]: 6.10

CCC1(C(=O)NC(CC(=O)O)C(=O)CF)CC(c2cc(C3CCCCC3)ccn2)=NO1 (centres unmarked) [Iaa15, 3-({[3-(4-Cyclohexyl-2-pyridinyl)-5-ethyl-4,5-dihydro-5-isoxazolyl]carbonyl}amino)-5-fluoro-4-oxopentanoic Acid]
kinact/KI (caspase-8): 7170 M⁻¹ s⁻¹
pIC50 [1]: 6.14

CCC1(C(=O)NC(CC(=O)O)C(=O)CF)CC(c2nccc3c2CCCC3)=NO1 (centres unmarked) [Iaa16, 3-({[5-Ethyl-3-(5,6,7,8-tetrahydro-1-isoquinolinyl)-4,5-dihydro-5-isoxazolyl]carbonyl}amino)-5-fluoro-4-oxopentanoic acid]
kinact/KI (caspase-8): 10300 M⁻¹ s⁻¹
pIC50 [1]: 6.14

CC(C)C1(C(=O)NC(CC(=O)O)C(=O)CF)CC(c2cc(-c3ccccc3)ccn2)=NO1 (centres unmarked) [Iaa17, 5-Fluoro-3-({[5-isopropyl-3-(4-phenyl-2-pyridinyl)-4,5-dihydro-5-isoxazolyl]carbonyl}amino)-4-oxopentanoic Acid]
kinact/KI (caspase-8): 3000 M⁻¹ s⁻¹
pIC50 [1]: 5.94

CC(C)[C@@]1(C(=O)N[C@@H](CC(=O)O)C(=O)COP(=O)(c2ccccc2)c2ccccc2)CC(c2nccc3ccccc23)=NO1 [Iaa18, (3S)-5-[(diphenylphosphoryl)oxy]-3-({[(5R)-5-isopropyl-3-(1-isoquinolinyl)-4,5-dihydro-5-isoxazolyl]carbonyl}amino)-4-oxopentanoic acid]
kinact/KI (caspase-8): 8670 M⁻¹ s⁻¹
pIC50 [1]: 5.82

CC(C)[C@@]1(C(=O)N[C@@H](CC(=O)O)C(=O)COc2cc(C(F)(F)F)nn2-c2ccccc2)CC(c2nccc3ccccc23)=NO1 [Iaa19, (3S)-3-({[(5R)-5-isopropyl-3-(1-isoquinolinyl)-4,5-dihydro-5-isoxazolyl]carbonyl}amino)-4-oxo-5-{[1-phenyl-3-(trifluoromethyl)-1H-pyrazol-5-yl]oxy}pentanoic acid]
kinact/KI (caspase-8): 267 M⁻¹ s⁻¹
Jurkat cell IC50 [1]: No Activity

C=CC(=O)[C@H](CC(=O)O)NC(=O)[C@]1(C(C)C)CC(c2nccc3ccccc23)=NO1 [Iaa22, (3S)-3-({[(5R)-5-isopropyl-3-(1-isoquinolinyl)-4,5-dihydro-5-isoxazolyl]carbonyl}amino)-4-oxo-5-hexenoic acid]
Caspase-8 Kobs/[I] (caspase-8): No Activity

CCC1(C(=O)N[C@@H](CC(=O)O)C(=O)COc2ccccn2)CC(c2ccccc2C(C)C)=NO1 (stereo partly drawn) [Iaa24, (3S)-3-({[5-ethyl-3-(2-isopropylphenyl)-4,5-dihydro-5-isoxazolyl]carbonyl}amino)-4-oxo-5-(2-pyridinyloxy)pentanoic Acid]
Caspase-8 Kobs/[I] (caspase-8): No Activity

CC(C)[C@@]1(C(=O)N[C@@H](CC(=O)O)C(=O)CF)CC(c2nccc3ccccc23)=NO1 [Iii-1, (3S)-5-fluoro-3-({[(5R)-5-isopropyl-3-(1-isoquinolinyl)-4,5-dihydro-5-isoxazolyl]carbonyl}amino)-4-oxopentanoic acid]
kinact/KI (caspase-8): 383000 M⁻¹ s⁻¹

CC(C)[C@@]1(C(=O)N[C@H](CC(=O)O)C(=O)CF)CC(c2nccc3ccccc23)=NO1 [Iii-2, (3R)-5-fluoro-3-({[(5R)-5-isopropyl-3-(1-isoquinolinyl)-4,5-dihydro-5-isoxazolyl]carbonyl}amino)-4-oxopentanoic acid]
kinact/KI (caspase-8): 7830 M⁻¹ s⁻¹

CCOC(=O)/C=C/[C@H](CC(=O)O)NC(=O)[C@]1(C(C)C)CC(c2nccc3ccccc23)=NO1 [Irr, (3S,4E)-6-ethoxy-3-({[(5R)-5-isopropyl-3-(1-isoquinolinyl)-4,5-dihydro-5-isoxazolyl]carbonyl}amino)-6-oxo-4-hexenoic Acid]
Jurkat cell IC50 [1]: No Activity

CC(C)[C@@]1(C(=O)N[C@H](/C=C/S(C)(=O)=O)CC(=O)O)CC(c2nccc3ccccc23)=NO1 [Iss, (3S,4E)-3-({[(5R)-5-isopropyl-3-(1-isoquinolinyl)-4,5-dihydro-5-isoxazolyl]carbonyl}amino)-5-(methylsulfonyl)-4-pentenoic acid]
Jurkat cell IC50 [1]: No Activity
